Molecules are shown by their SMILES.

The test system of data set [1] is latent HIV in CD4+ T cells of HIV-infected patients on suppressive anti-retroviral therapy. Nature of the data set: Example 7: reversal of HIV latency in patient CD4+ T cells, extracellular viral RNA by digital droplet PCR.
The test system of data set [2] is CD4+ T cells. The data set can be described thus: Example 5: CD4+ T cell viability, Cell Titer Blue assay. The conditions noted are these: 48 hours; SB-216763 and tideglusib 10/100/1000 nM; bryostatin-1 10 nM. Type of data set: cell-based, human. As to the method: 25 μl from each well/treatment were incubated with Cell Titer Blue reagent (Promega) for 3 to 4 hours at 37° C. The assay is based on the ability of living cells to convert a redox dye (resazurin) into a fluorescent end product (resorufin). Colorimetric analysis of treated cells was done with a Perkin Elmer EnSpire 2300 Multimode plate reader set to detect fluorescence (Ex:579 nm/Em:584 nm).

In data set [3] the test system is CD4+ T cells. The data set can be described thus: Example 5: lactate production analysis. The data set is classed as cell-based, human. The conditions noted are these: 24 hours of treatment. As to the method: Subsequently, media of the treated samples were tested for production of L-lactated using a Glycolysis Cell-Based Assay Kit (Cayman Chemical). This test measures the quantity of formazan, an artificial chromogenic dye that results from the reduction of tetrazolium salts in the presence of NADH in the culture media. Colored formazan absorbs between 490 and 520 nm and can be detected by a plate reader. Since lactate dehydrogenase catalyzes the reaction between NAD+ and lactate, yielding pyruvate and NADH, which directly reduces the tetrazolium salt, the quantity of formazan produced is proportional to the quantity of L-lactate in the culture medium, and is thus an indirect measurement of glycolysis. In order to determine specific L-Lactate concentration, a standard curve was obtained analyzing absorbance of known concentration of L-lactate as indicated in the manufacturer's protocol.

Turning to `O=c1sn(-c2cccc3ccccc23)c(=O)n1Cc1ccccc1` [Tideglusib, 4-benzyl-2-(naphthalen-1-yl)-1,2,4-thiadiazolidine-3,5-dione], the “latency reversing activity, in words” value in data set [1] (at equivalent doses) is “comparable activity”. In addition, the “induction of latent virus production (virus-associated RNA over DMSO-treated control)” value in data set [1] (highest concentration) was around 40 fold. Also, the “subjects that did not respond” value in data set [1] (highest dose) is reported as 1 of 8. The “CD4+ T-cell viability” value in the data set on CD4+ T cells [2] is “does not reduce viability”. Besides, the “L-lactate in the culture media” value with CD4+ T cells [3] was “did not result in an increase of L-lactate”.

(Values after patent publication US11590110B2, “Compositions and methods for reactivating latent immunodeficiency virus using a GSK-3 inhibitor” (priority 2017, dated 2023).)
